Reference: US20240091366A1, “NOVEL ACID-SENSITIVE APTAMER TRIPTOLIDE CONJUGATE AND APPLICATIONS” (priority 2022, published 2024)
Several values for one entry are separate records, joined by “and”; a condition that tells them apart may be missing. Identical values can stand only once.

How the values were obtained:
Assay type in all cases: cell-based
[1] = test system: hepatocellular carcinoma cell line HepG2; assay: MTT assay, cell proliferation inhibition; settings: 48 h
Text: (§1) Material: aptamer triptolide conjugate (AS1411-TP). Triptolide (TP) was provided by Shanghai Yaji Biotechnology Co. Ltd; aptamer (AS1411) was obtained from Chengdu Pilot Drug Development Co. Ltd; trypsin, thiazolyl blue (MTT) (Biofroxx, Germany); dimethyl sulfoxide (DMSO) (MP Biomedicals, France); fetal bovine serum (FBS) (Newzerum, New Zealand); DMEM medium, RPMI1640 medium, Petri dishes, 96-well plates (Corning, USA); colon cancer cells HCT116, breast cancer cells MDA-MB-231, non-small-cell lung cancer cells A549, pancreatic cancer cells PANC-1, and hepatocellular carcinoma cells HepG2 were purchased from the Shanghai Cell Bank of the Chinese Academy of Sciences and preserved in the laboratory.
(§2) Take the tumor cells HCT116, MDA-MB-231, A549, PANC-1 and HepG2 cell lines from the liquid nitrogen tank, place them in a 37° C. water bath, wait for the frozen cells to melt into cell suspension, centrifuge the cells at 1000 r/min for 3 min, discard the supernatant, add 1 ml of fresh complete medium containing 10% fetal bovine serum and 1% double antibody to mix the cells, then add 5 ml of medium, gently and repeatedly blowing the cells with a pipette gun to make them mix well. Then add 5 ml of medium, blow the cells gently and repeatedly with a pipette gun to mix them well, and finally transfer the cell suspension to a […] and label the cell name, cell number, date of resuscitation and the operator's name, and place it in a cell culture incubator for cultivation. (HCT116, PANC-1 and HepG2 cell lines were cultured in DMEM medium, while MDA-MB-231 cell line and A549 cell line were cultured in RPMI1640 medium).
(§3) Take HCT116, MDA-MB-231, A549, PANC-1, HepG2 cells with good growth status, remove the medium, add 1 ml of sterile PBS to wash, add 1.5 ml of trypsin to digest the cells, about 2 min later the cells become round and fall off, add 1.5 ml of medium to terminate the digestion, transfer it to centrifugal tube, centrifuge at 1000 r/min for 3 min, discard the supernatant, add 1 ml of fresh medium to resuspend, then add fresh medium for 1:3 distribution to other culture dishes, and label the date of transmission and the number of generations. Place in the cell culture incubator for cultivation.
(§4) Take HCT116, MDA-MB-231, A549, PANC-1, HepG2 cells with good growth status, by the same operation as the cell passaging experiment, after cell resuspension, cell counting with hemocyte counting plate, with 2500 cells/well, plant in 96-well plate, after 24 h of cell culture, remove the original medium, add medium containing different concentrations of drugs and continue to cultivate for 48 hours. After 24 h of cell culture, the original medium was removed and the medium containing different concentrations of drugs was added to continue the culture for 48 hours. […] The above steps were repeated three times.

[2] = test system: lung adenocarcinoma cell line A549; assay: MTT assay, cell proliferation inhibition; settings: 48 h
Text: as §1, §2, §3, §4

[3] = test system: human embryonic kidney cells HEK293; assay: MTT assay, cytotoxicity on normal cells; settings: 48 h, samples 1-3
Experimental: (§5) The same materials as those in Part II above are not repeated here, in addition to the following: human normal hepatocytes LO2, human embryonic kidney cells HEK293 were purchased from the Shanghai Cell Bank of the Chinese Academy of Sciences and preserved in our laboratory.
(§6) Take the […] LO2 and HEK293 cell lines from the liquid nitrogen tank, place them in a 37° C. water bath, wait for the frozen cells to melt into cell suspension, centrifuge the cells at 1000 r/min for 3 min, discard the supernatant, add 1 ml of fresh complete medium containing 10% fetal bovine serum and 1% double antibody to mix the cells, then add 5 ml of medium, gently and repeatedly blowing the cells with a pipette gun to make them mix well. Then add 5 ml of medium, blow the cells gently and repeatedly with a pipette gun to mix them well, and finally transfer the cell suspension to a […] and label the cell name, cell number, date of resuscitation and the operator's name, and place it in a cell culture incubator for cultivation. (HEK293 cell line was cultured with DMEM medium, LO2 cell line was cultured with RPMI1640 medium)
as §3, with “LO2 and HEK293” for “HCT116, MDA-MB-231, A549, PANC-1, HepG2”
as §4, with “LO2 and HEK293” for “HCT116, MDA-MB-231, A549, PANC-1, HepG2”, “3000” for “2500”

[4] = test system: human normal hepatocytes LO2; assay: MTT assay, cytotoxicity on normal cells; settings: 48 h, 48 h, samples 1-3
Experimental: as §5, §6
as §3, with “LO2 and HEK293” for “HCT116, MDA-MB-231, A549, PANC-1, HepG2”
as §4, with “LO2 and HEK293” for “HCT116, MDA-MB-231, A549, PANC-1, HepG2”, “3000” for “2500”

## CC(C)[C@]12O[C@H]1[C@@H]1O[C@]13[C@]1(O[C@H]1C[C@H]1C4=C(CC[C@@]13C)C(=O)OC4)[C@@H]2O [TP, Triptolide]
[1]; HepG2, 3.1 nM, samples 1-3, 0.0031 µM
  cell proliferation inhibition rate: 28.7555 and 29.2302
[1]; HepG2, 6.3 nM, samples 1-3, 0.0063 µM
  cell proliferation inhibition rate: 39.8542 and 49.5151
[1]; HepG2, 12.5 nM, samples 1-3, 0.0125 µM
  cell proliferation inhibition rate: 51.8210 and 55.5307
[1]; HepG2, 25.0 nM, samples 1-3, 0.025 µM
  cell proliferation inhibition rate: 66.7752 and 69.1489
[1]; HepG2, 50.0 nM, samples 1-3, 0.05 µM
  cell proliferation inhibition rate: 79.9729 and 77.1075
[1]; HepG2, 100.0 nM, samples 1-3, 0.1 µM
  cell proliferation inhibition rate: 88.3181 and 85.8901
[1]; HepG2, 200.0 nM, samples 1-3, 0.2 µM
  cell proliferation inhibition rate: 99.2815 and 99.0448
[1]; Homo sapiens, HepG2, 48 h, HepG2, 3.1 nM, samples 1-3, read-out: cell proliferation inhibition rate
  inhibition at 0.0031 µM: 29%
[1]; Homo sapiens, HepG2, 48 h, HepG2, 6.3 nM, samples 1-3, read-out: cell proliferation inhibition rate
  inhibition at 0.0063 µM: 39.7%
[1]; Homo sapiens, HepG2, 48 h, HepG2, 12.5 nM, samples 1-3, read-out: cell proliferation inhibition rate
  inhibition at 0.0125 µM: 48.7%
[1]; Homo sapiens, HepG2, 48 h, HepG2, 25.0 nM, samples 1-3, read-out: cell proliferation inhibition rate
  inhibition at 0.025 µM: 68%
[1]; Homo sapiens, HepG2, 48 h, HepG2, 50.0 nM, samples 1-3, read-out: cell proliferation inhibition rate
  inhibition at 0.05 µM: 78.5%
[1]; Homo sapiens, HepG2, 48 h, HepG2, 100.0 nM, samples 1-3, read-out: cell proliferation inhibition rate
  inhibition at 0.1 µM: 88.2%
[1]; Homo sapiens, HepG2, 48 h, HepG2, 200.0 nM, samples 1-3, read-out: cell proliferation inhibition rate
  inhibition at 0.2 µM: 95.2%
[1]; Homo sapiens, hepatocellular carcinoma cells HepG2, MTT
  IC50: 10.5 ± 0.33 nM
[2]; A549, 6.3 nM, samples 1-3, 0.0063 µM
  cell proliferation inhibition rate: 16.7429 and 15.2571
[2]; A549, 12.5 nM, samples 1-3, 0.0125 µM
  cell proliferation inhibition rate: 29.4400 and 25.9563
[2]; A549, 25.0 nM, samples 1-3, 0.025 µM
  cell proliferation inhibition rate: 43.2000 and 46.9811
[2]; A549, 50.0 nM, samples 1-3, 0.05 µM
  cell proliferation inhibition rate: 66.0800 and 68.6718
[2]; A549, 100.0 nM, samples 1-3, 0.1 µM
  cell proliferation inhibition rate: 84.2971 and 83.2186
[2]; A549, 200.0 nM, samples 1-3, 0.2 µM
  cell proliferation inhibition rate: 97.0057 and 96.3263
[2]; Homo sapiens, A549, 48 h, A549, 6.3 nM, samples 1-3, read-out: cell proliferation inhibition rate
  inhibition at 0.0063 µM: 13.7%
[2]; Homo sapiens, A549, 48 h, A549, 12.5 nM, samples 1-3, read-out: cell proliferation inhibition rate
  inhibition at 0.0125 µM: 22.1%
[2]; Homo sapiens, A549, 48 h, A549, 25.0 nM, samples 1-3, read-out: cell proliferation inhibition rate
  inhibition at 0.025 µM: 41.5%
[2]; Homo sapiens, A549, 48 h, A549, 50.0 nM, samples 1-3, read-out: cell proliferation inhibition rate
  inhibition at 0.05 µM: 63%
[2]; Homo sapiens, A549, 48 h, A549, 100.0 nM, samples 1-3, read-out: cell proliferation inhibition rate
  inhibition at 0.1 µM: 80.1%
[2]; Homo sapiens, A549, 48 h, A549, 200.0 nM, samples 1-3, read-out: cell proliferation inhibition rate
  inhibition at 0.2 µM: 99.2%
[2]; Homo sapiens, lung adenocarcinoma cells A549, MTT
  IC50: 30.23 ± 0.17 nM
[3]; HEK293, 3.1 nM, 0.0031 µM
  cell proliferation inhibition rate: 30.4489 and 32.7054
[3]; HEK293, 6.3 nM, 0.0063 µM
  cell proliferation inhibition rate: 53.1149 and 51.3265
[3]; HEK293, 12.5 nM, 0.0125 µM
  cell proliferation inhibition rate: 70.4830 and 71.1686
[3]; HEK293, 25.0 nM, 0.025 µM
  cell proliferation inhibition rate: 73.0686 and 75.7495
[3]; HEK293, 50.0 nM, 0.05 µM
  cell proliferation inhibition rate: 81.0372
[3]; HEK293, 100.0 nM, 0.1 µM
  cell proliferation inhibition rate: 94.3972 and 99.2908
[3]; HEK293, 200.0 nM, 0.2 µM
  cell proliferation inhibition rate: 95.3901 and 100.6383
[3]; Homo sapiens, HEK293, 48 h, HEK293, 3.1 nM, read-out: cell proliferation inhibition rate
  inhibition at 0.0031 µM: 35.1%
[3]; Homo sapiens, HEK293, 48 h, HEK293, 6.3 nM, read-out: cell proliferation inhibition rate
  inhibition at 0.0063 µM: 59.9%
[3]; Homo sapiens, HEK293, 48 h, HEK293, 12.5 nM, read-out: cell proliferation inhibition rate
  inhibition at 0.0125 µM: 69.3%
[3]; Homo sapiens, HEK293, 48 h, HEK293, 25.0 nM, read-out: cell proliferation inhibition rate
  inhibition at 0.025 µM: 79.5%
[3]; Homo sapiens, HEK293, 48 h, HEK293, 50.0 nM, read-out: cell proliferation inhibition rate
  inhibition at 0.05 µM: 89.5%
[3]; Homo sapiens, HEK293, 48 h, HEK293, 100.0 nM, read-out: cell proliferation inhibition rate
  inhibition at 0.1 µM: 99.9%
[3]; Homo sapiens, HEK293, 48 h, HEK293, 200.0 nM, read-out: cell proliferation inhibition rate
  inhibition at 0.2 µM: 98.3%
[4]; Homo sapiens, Hepatocyte, LO2, 3.1 nM, read-out: cell proliferation inhibition rate
  inhibition at 0.0031 µM: 21.4%
[4]; Homo sapiens, Hepatocyte, LO2, 6.3 nM, read-out: cell proliferation inhibition rate
  inhibition at 0.0063 µM: 32%
[4]; Homo sapiens, Hepatocyte, LO2, 12.5 nM, read-out: cell proliferation inhibition rate
  inhibition at 0.0125 µM: 66.4%
[4]; Homo sapiens, Hepatocyte, LO2, 25.0 nM, read-out: cell proliferation inhibition rate
  inhibition at 0.025 µM: 74.1%
[4]; Homo sapiens, Hepatocyte, LO2, 50.0 nM, read-out: cell proliferation inhibition rate
  inhibition at 0.05 µM: 88.7%
[4]; Homo sapiens, Hepatocyte, LO2, 100.0 nM, read-out: cell proliferation inhibition rate
  inhibition at 0.1 µM: 96.3%
[4]; Homo sapiens, Hepatocyte, LO2, 200.0 nM, read-out: cell proliferation inhibition rate
  inhibition at 0.2 µM: 94%
[4]; LO2, 3.1 nM, 0.0031 µM
  cell proliferation inhibition rate: 23.3551 and 17.9111
[4]; LO2, 6.3 nM, 0.0063 µM
  cell proliferation inhibition rate: 40.8401 and 42.6158
[4]; LO2, 12.5 nM, 0.0125 µM
  cell proliferation inhibition rate: 59.2076 and 65.5783
[4]; LO2, 25.0 nM, 0.025 µM
  cell proliferation inhibition rate: 73.3084 and 73.3954
[4]; LO2, 50.0 nM, 0.05 µM
  cell proliferation inhibition rate: 87.4474 and 84.6990
[4]; LO2, 100.0 nM, 0.1 µM
  cell proliferation inhibition rate: 97.7552 and 82.0308
[4]; LO2, 200.0 nM, 0.2 µM
  cell proliferation inhibition rate: 99.8060 and 96.6312
